Results reported in US10214511B2, “Quinazolines as potassium ion channel inhibitors” (Bristol-Myers Squibb Company, priority 2009, dated 2019).
Where two headings read alike, the source gives them in different places.

Experiments:
JAK2 = JAK2 (Homo sapiens (Human), UniProt O60674); assay: Caliper Kinase Assay; assay type: biochemical; conditions: ATP at Km, peptide 1.5 uM; read-out: LLE_JAK2 (IC50)
Description: (§1) IC50 values were derived by non-linear regression analysis.

TAK1 = TAK1 (Homo sapiens (Human), UniProt O43318); assay: Caliper Kinase Assay; assay type: biochemical; conditions: ATP at Km, peptide 1.5 uM; read-out: LLE_TAK1 (IC50)
Description: as §1

Kv 1.5 = Kv 1.5 (Homo sapiens (Human), UniProt P22460); assay: Kv1.5 (IKur) inhibition assay; assay type: cell-based
Chain of Kv 1.5 (P22460 whole entry): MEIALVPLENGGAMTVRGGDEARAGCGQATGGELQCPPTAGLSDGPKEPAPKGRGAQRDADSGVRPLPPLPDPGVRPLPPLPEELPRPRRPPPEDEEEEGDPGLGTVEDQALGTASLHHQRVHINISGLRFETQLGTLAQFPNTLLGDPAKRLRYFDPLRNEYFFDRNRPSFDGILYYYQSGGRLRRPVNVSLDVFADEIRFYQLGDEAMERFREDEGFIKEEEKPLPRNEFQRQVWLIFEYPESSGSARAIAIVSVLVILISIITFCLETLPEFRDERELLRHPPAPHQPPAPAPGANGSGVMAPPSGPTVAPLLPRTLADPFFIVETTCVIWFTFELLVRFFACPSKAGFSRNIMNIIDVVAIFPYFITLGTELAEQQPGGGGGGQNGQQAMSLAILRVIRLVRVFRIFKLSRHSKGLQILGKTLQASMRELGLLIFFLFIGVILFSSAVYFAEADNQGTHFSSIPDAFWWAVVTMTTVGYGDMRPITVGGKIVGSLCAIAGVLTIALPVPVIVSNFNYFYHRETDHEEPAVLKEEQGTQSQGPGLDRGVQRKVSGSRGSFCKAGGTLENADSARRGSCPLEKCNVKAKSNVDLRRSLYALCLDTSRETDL
Description: Assays to determine the degree of activity of a compound as an IKur inhibitor are well known in the art and are described in references such as J. Gen. Physiol., 101(4):513-543 (April 1993), and Br. J. Pharmacol., 115(2):267-274 (May 1995).
Assays to determine the degree of activity of a compound as an inhibitor of other members of the Kv1 subfamily are also well known in the art. For example, inhibition of Kv1.1, Kv1.2 and Kv1.3 can be measured using procedures described by Grissmer, S. et al., Mol. Pharmacol., 45(6):1227-1234 (June 1994); inhibition of Kv1.4 can be measured using procedures described by Petersen, K. R. et al., Pflugers Arch., 437(3):381-392 (February 1999); inhibition of Kv1.6 can be measured using procedures described by Bowlby, M. R. et al., J. Neurophysiol. 73(6):2221-2229 (June 1995); and inhibition of Kv1.7 can be measured using procedures described by Kalman, K. et al., J. Biol. Chem., 273(10):5851-5857 (Mar. 6, 1998).
Compounds of the present invention were tested in one of the assays described immediately above and the results shown in Table 2 below were obtained.

[1] = Brain penetration across species; assay type: in vivo
ABL1 = ABL1 (Homo sapiens (Human), UniProt P00519); assay: Caliper Kinase Assay; assay type: biochemical; conditions: read-out: LLE_ABL1 (% INH, 50 uM)
Chain of ABL1 (P00519 whole entry, species assumed): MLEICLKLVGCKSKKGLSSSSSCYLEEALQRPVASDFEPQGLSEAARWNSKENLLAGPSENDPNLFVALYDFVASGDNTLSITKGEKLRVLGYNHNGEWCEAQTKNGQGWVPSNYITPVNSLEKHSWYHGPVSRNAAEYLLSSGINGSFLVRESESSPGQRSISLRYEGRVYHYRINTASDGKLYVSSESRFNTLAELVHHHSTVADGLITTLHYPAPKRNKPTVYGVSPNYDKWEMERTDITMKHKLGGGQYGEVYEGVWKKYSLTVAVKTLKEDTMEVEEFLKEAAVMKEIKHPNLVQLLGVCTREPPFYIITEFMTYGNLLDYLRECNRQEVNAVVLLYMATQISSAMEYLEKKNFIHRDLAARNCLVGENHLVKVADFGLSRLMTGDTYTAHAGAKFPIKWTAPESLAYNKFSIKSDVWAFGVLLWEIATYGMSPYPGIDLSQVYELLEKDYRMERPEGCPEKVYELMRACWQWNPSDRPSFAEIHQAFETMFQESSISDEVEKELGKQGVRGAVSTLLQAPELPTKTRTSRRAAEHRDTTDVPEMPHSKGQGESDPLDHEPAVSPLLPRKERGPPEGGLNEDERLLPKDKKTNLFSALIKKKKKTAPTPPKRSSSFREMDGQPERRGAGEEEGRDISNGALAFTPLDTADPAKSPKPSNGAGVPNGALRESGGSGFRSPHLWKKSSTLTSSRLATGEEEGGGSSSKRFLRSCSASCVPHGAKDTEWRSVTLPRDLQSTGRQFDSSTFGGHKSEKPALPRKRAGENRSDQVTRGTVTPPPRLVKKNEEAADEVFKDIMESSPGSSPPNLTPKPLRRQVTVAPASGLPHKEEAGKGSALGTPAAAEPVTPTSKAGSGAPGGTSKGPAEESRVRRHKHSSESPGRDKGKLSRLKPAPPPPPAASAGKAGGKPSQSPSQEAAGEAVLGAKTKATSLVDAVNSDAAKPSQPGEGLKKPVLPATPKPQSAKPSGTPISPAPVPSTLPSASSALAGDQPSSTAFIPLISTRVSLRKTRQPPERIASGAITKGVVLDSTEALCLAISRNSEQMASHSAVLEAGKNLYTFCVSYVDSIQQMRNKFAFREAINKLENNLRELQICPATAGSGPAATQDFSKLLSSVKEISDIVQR
Description: as §1

Flt3 = Flt3 (Homo sapiens (Human), UniProt P36888); assay: Caliper Kinase Assay; assay type: biochemical; conditions: ATP at Km, peptide 1.5 uM; read-out: LLE Flt3 (IC50)
Description: as §1

IGF1R = IGF1R (Homo sapiens (Human), UniProt P08069); assay: Caliper Kinase Assay; assay type: biochemical; conditions: ATP at Km, peptide 1.5 uM
Chain of IGF1R (P08069 31-1367, species assumed): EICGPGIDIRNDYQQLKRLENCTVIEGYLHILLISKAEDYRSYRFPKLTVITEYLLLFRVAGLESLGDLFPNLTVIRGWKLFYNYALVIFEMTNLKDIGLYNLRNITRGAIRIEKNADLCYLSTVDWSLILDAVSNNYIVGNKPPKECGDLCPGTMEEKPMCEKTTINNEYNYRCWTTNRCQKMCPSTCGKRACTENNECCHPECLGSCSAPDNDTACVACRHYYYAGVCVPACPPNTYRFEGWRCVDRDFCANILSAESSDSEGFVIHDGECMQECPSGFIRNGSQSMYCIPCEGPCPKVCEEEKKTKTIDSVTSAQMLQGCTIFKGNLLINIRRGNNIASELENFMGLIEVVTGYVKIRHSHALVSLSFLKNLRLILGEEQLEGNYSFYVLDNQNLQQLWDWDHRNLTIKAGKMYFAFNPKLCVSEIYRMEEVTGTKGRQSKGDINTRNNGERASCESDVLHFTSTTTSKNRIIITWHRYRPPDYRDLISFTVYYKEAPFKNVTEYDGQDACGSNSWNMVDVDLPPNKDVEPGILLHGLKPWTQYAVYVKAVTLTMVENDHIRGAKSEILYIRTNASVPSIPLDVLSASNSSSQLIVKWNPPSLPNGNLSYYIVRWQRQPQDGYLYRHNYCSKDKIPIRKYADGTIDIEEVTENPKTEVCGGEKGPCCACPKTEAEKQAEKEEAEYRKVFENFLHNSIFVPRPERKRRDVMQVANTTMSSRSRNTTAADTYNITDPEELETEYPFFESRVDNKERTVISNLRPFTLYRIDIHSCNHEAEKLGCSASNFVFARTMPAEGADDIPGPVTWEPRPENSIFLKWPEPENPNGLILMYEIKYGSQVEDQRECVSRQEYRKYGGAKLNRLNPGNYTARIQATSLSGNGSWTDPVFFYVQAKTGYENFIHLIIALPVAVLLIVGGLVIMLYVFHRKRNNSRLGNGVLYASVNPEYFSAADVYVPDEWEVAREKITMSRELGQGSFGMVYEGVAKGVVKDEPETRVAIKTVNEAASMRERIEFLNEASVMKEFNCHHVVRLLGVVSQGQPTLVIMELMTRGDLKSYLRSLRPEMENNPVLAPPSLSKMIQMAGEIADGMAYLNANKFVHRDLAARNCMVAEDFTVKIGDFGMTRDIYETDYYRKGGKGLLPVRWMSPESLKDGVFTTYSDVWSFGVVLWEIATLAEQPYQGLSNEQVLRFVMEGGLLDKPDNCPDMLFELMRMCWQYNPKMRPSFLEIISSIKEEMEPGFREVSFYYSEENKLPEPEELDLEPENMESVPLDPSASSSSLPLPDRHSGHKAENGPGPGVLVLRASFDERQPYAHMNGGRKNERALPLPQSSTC
Description: as §1

PIM1 = PIM1 (Homo sapiens (Human), UniProt P11309); assay: Caliper Kinase Assay; assay type: biochemical; conditions: ATP at Km, peptide 1.5 uM
Chain of PIM1 (P11309 whole entry, species assumed): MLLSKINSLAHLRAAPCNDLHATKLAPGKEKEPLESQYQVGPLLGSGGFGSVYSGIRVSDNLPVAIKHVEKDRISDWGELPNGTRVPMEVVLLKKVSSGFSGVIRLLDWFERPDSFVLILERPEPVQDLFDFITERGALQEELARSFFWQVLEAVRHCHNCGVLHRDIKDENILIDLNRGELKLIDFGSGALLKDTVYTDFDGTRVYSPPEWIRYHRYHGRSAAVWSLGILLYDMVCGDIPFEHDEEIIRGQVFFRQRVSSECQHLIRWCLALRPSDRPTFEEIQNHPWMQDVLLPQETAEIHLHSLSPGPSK
Description: as §1

BTK = BTK (Homo sapiens (Human), UniProt Q06187); assay: Caliper Kinase Assay; assay type: biochemical; conditions: ATP at Km, peptide 1.5 uM; read-out: LLE_BTK (IC50)
CK2A2 = CK2A2 (Homo sapiens (Human), UniProt P19784); assay: Caliper Kinase Assay; assay type: biochemical; conditions: ATP at Km, peptide 1.5 uM; read-out: LLE_CK2A2 (IC50)
JAK3 = JAK3 (Homo sapiens (Human), UniProt P52333); assay: Caliper Kinase Assay; assay type: biochemical; conditions: ATP at Km, peptide 1.5 uM; read-out: LLE_JAK3 (IC50)
GSK3B = GSK3B (Homo sapiens (Human), UniProt P49841); assay: Caliper Kinase Assay; assay type: biochemical; conditions: ATP at Km, peptide 1.5 uM; read-out: LLE GSK3B (IC50)
Method: (§2) In addition, compounds of the present invention, such as particular compounds disclosed in the preceding examples, were evaluated for their effectiveness as inhibitors of kinase receptor activity.
(§3) The analyses were performed in U-bottom 384-well plates. The final assay volume was 30 μl prepared from 15 μl additions of enzyme and substrates (fluoresceinated peptide and ATP) and test compounds in assay buffer (20 mM HEPES pH 7.4, 10 mM MgCl2, 0.015% Brij35 and 4 mM DTT). The reaction was initiated by the combination of purified protein kinase with substrates and test compounds. The reaction was incubated at room temperature for 60 min. and terminated by adding 30 μl of 35 mM EDTA to each sample. The reaction mixture was analyzed on the Caliper LABCHIP® 3000 (Caliper, Hopkinton, Mass.) by electrophoretic separation of the fluorescent substrate and phosphorylated product. Inhibition data were calculated by comparison to no enzyme control reactions for 100% inhibition and vehicle-only reactions for 0% inhibition. The ATP was used at a final concentration equivalent to the Km and the peptide substrate concentration was 1.5 μM. […] Compounds were dissolved at 10 mM in dimethylsulfoxide (DMSO) and evaluated at eleven concentrations. IC50 values were derived by non-linear regression analysis.

IRAK-4 = IRAK-4 (Homo sapiens (Human), UniProt Q9NWZ3); assay: Caliper Kinase Assay; assay type: biochemical; conditions: ATP at Km, peptide 1.5 uM; read-out: LLE IRAK-4 (IC50)
Method: as §2, §3

TPL2 = TPL2 (Homo sapiens (Human), UniProt P41279); assay: Caliper Kinase Assay; assay type: biochemical; conditions: ATP at Km, peptide 1.5 uM; read-out: LLE_TPL2 CAL (IC50)
Chain of TPL2 (P41279 whole entry, species assumed): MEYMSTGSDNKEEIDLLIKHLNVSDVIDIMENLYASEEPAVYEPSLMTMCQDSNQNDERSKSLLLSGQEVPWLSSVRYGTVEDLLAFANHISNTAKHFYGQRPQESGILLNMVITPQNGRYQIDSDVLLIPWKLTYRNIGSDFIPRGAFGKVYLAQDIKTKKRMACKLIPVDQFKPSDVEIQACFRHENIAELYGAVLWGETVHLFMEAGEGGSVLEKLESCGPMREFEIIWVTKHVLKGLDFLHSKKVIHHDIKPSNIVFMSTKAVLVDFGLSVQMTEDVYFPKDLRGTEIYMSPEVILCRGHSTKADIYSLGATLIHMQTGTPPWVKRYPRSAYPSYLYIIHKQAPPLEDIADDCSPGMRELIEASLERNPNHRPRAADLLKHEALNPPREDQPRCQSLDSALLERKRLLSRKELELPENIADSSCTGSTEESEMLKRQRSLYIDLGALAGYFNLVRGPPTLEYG
Method: as §2, §3

Chain of JAK2 (O60674 whole entry, species assumed): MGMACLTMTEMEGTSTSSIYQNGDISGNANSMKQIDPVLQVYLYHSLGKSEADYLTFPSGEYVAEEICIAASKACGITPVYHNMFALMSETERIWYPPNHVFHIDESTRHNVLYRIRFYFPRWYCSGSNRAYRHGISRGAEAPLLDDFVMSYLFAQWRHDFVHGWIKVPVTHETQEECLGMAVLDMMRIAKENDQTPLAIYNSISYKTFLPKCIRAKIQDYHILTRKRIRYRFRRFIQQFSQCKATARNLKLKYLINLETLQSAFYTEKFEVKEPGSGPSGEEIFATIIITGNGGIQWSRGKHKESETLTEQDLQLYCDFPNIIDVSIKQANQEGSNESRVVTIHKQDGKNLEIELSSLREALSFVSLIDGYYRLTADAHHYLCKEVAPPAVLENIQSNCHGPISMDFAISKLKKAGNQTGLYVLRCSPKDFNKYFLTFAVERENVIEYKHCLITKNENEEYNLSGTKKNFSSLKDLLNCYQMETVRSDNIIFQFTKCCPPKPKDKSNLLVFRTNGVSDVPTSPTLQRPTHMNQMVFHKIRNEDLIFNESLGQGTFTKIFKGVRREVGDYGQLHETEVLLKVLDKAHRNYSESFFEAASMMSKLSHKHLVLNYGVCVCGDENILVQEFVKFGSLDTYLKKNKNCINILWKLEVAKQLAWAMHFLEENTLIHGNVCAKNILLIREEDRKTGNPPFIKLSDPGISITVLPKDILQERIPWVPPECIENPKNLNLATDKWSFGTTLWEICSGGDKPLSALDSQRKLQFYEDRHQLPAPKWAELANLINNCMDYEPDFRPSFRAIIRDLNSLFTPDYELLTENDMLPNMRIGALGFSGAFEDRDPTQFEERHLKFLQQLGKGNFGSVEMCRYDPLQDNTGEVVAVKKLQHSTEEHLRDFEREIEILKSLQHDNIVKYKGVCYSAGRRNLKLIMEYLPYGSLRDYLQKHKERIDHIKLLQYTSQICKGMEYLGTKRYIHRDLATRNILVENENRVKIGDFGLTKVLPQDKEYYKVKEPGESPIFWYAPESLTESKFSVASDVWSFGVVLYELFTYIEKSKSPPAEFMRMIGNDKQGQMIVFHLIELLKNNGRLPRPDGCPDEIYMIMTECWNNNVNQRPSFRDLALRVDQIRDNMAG

SMILES	inhibition at 0.3 µM (Kv 1.5)	further results
c1ccc(-c2cccc3nc(-c4cncnc4)nc(NCc4ccccn4)c23)cc1 [Example 1, 5-Phenyl-N-(pyridin-2-ylmethyl)-2-(pyrimidin-5-yl)quinazolin-4-amine]		IC50 (JAK2): 23.9 µM; IC50 (TAK1): ≥ 50 µM
NS(=O)(=O)c1cncc(-c2nc(NCc3ccccn3)c3c(-c4ccccc4)cccc3n2)c1 [Example 7, 5-(5-Phenyl-4-(pyridin-2-ylmethylamino)quinazolin-2-yl)pyridine-3-sulfonamide]	95.7%	IC50 (JAK2): ≥ 50 µM; brain penetration [1]: surprisingly low degree of brain penetration across species
Clc1nc(NCc2ccccn2)c2c(-c3ccccc3)cccc2n1 [Example 19]		inhibition at 50 µM (ABL1): 32.4%; IC50 (Flt3): 10.1 µM; IC50 (IGF1R; first section of Table 4, read-out: LLE IGF1R (IC50)): 17.6 µM; IC50 (IGF1R; second section of Table 4, read-out: LLE_IGF1R (IC50)): 17.6 µM; IC50 (JAK2): 17.8 µM; IC50 (PIM1; first section of Table 4, read-out: LLE PIM1 (IC50)): 33.8 µM; IC50 (PIM1; third section of Table 4, read-out: LLE_PIM1 (IC50)): 33.8 µM; IC50 (BTK): 19.2 µM; IC50 (CK2A2): 25.5 µM; IC50 (JAK3): 23.8 µM; IC50 (GSK3B): 5.15 µM; IC50 (IRAK-4): 18.7 µM; IC50 (TPL2): 11.9 µM
Cc1nc(NCc2ccccn2)c2c(-c3ccccc3)cccc2n1 [Example 22]	60.4%	
COc1cncc(-c2nc(NCc3ccccn3)c3c(-c4ccccc4)cccc3n2)c1 [Example 29]	65.3%	
c1ccc(-c2cccc3nc(-c4ccncc4)nc(NCc4ccccn4)c23)cc1 [Example 31]	98.2%	
Nc1ccc(-c2nc(NCc3ccccn3)c3c(-c4ccccc4)cccc3n2)cn1 [Example 32]	53.1%	
Clc1nc(Nc2nccs2)c2c(-c3ccccc3)cccc2n1 [Example 38]	61.3%	
c1ccc(CNc2nc(-c3cncnc3)nc3cccc(-c4ccccc4)c23)cc1 [Example 40]	59.8%	
Clc1nc(NCc2ccccc2)c2c(-c3ccccc3)cccc2n1 [Example 42]	96.4%	
c1ccc(-c2cccc3nc(-c4ccc5cc[nH]c5c4)nc(NCc4ccccn4)c23)cc1 [Example 46]	98.7%	
c1ccc(-c2nc(NCc3ccccn3)c3c(-c4ccccc4)cccc3n2)cc1 [Example 50]	96.1%	
FC(F)(F)c1ccc(-c2cccc3nc(Cl)nc(NCc4ccccn4)c23)cc1 [Example 97]	98.7%	

The next lines start with results.

inhibition at 0.3 µM (Kv 1.5)	SMILES	further results
98.7%	COc1ccc(-c2nc(NCc3ccccn3)c3c(-c4ccccc4)cccc3n2)cn1 [Example 105]	
50.3%	c1ccc(CNc2nc(-c3cncnc3)nc3cccc(-c4cccc(N5CCOCC5)c4)c23)nc1 [Example 107]	
98.1%	CN(C)c1ccc(-c2cccc3nc(Cl)nc(NCc4ccccn4)c23)cc1 [Example 108]	
51.8%	Fc1ccc(CNc2nc(Cl)nc3cccc(-c4ccccc4)c23)nc1 [Example 110]	
61.5%	Fc1ccc(CNc2nc(-c3cncnc3)nc3cccc(-c4ccccc4)c23)nc1 [Example 111]	
96.2%	CC(Nc1nc(Cl)nc2cccc(-c3ccccc3)c12)c1ccccc1 (stereo not drawn) [Example 130]	
98.4%	COc1cccc(CNc2nc(Cl)nc3cccc(-c4ccccc4)c23)c1 [Example 134]	
55.6%	FC(F)(F)c1ccccc1CNc1nc(Cl)nc2cccc(-c3ccccc3)c12 [Example 137]	
